From US20190211317A1, “PEPTIDES AND NANOPARTICLES FOR INTRACELLULAR DELIVERY OF GENOME-EDITING MOLECULES” (Aadigen, LLC, priority 2016, published 2019)
Read-outs that look alike come from different tables or passages of the source.

Key:
[1] = tested on: EGFP reporter gene in EGFP-U2OS, EGFP-HEK, EGFP-JURKAT cells; experiment: EGFP reporter gene disruption from CPP delivery of CAS9:sgRNA (flow cytometry); format: cell-based, human; settings: for decrease in EGFP expression: CAS9:gRNA 50 nM, CPP:cargo 20:1;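 for all read-outs here: cells carrying one integrated EGFP reporter received peptide-complexed CAS9 preloaded 1:1 with EGFP sgRNA, cultured 72 h, then EGFP level read by flow cytometry, lipofectamine 2000 and RNAiMAX as positive controls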
Method: Efficacy of CPP-mediated delivery was quantified using a well-established CAS9-induced gene disruption method (Fu et al, 2013, supra), by targeting a specific site in the exogenous EGFP gene reporter in three human cell lines expressing EGFP (GFP-U2OS, EGFP-HEK, EGFP-JURKAT).
Stock solutions of amphipathic peptides were prepared at 1 mg/mL in distilled water and sonicated for 10 min. CAS9 protein was preloaded with purified EGFP sgRNA at a molar ratio of 1:1 and incubated for 10 min prior to forming complexes with the peptides. Preloaded CAS9/gRNA complexes (10 nM, 25 nM, and 50 nM) were mixed with CPPs at 5:1, 10:1 and 20:1 molar ratios of CPP to cargo and incubated for 30 min at 37° C. prior to cell transfection.
Cell line containing a single integrated EGFP reporter gene (GFP-U2OS, EGFP-HEK and EGFP-JURKAT) were cultured in Dulbecco's Modified Eagle's Medium (DMEM), supplemented with 2 mM glutamine, 1% antibiotics (streptomycin 10,000 μg/mL, penicillin, 10,000 IU/mL) and 10% (w/v) foetal calf serum (FCS) at 37° C. in a humidified atmosphere containing 5% CO2. A total of 150,000 cells seeded in a 35 mm dish the day prior to transfection were grown to 50-60% confluence and overlaid with 200 μl of preformed complexes, incubated for 3-5 min, then 400 μl of DMEM was added. After 30 min incubation at 37° C., 1 mL of fresh DMEM containing 16% FCS was added to reach a final FCS concentration of 10%, without removing the overlay of CPP/CAS9-gRNA complexes. Cells were returned to the incubator for 72 hours.
CAS9-induced double-strand break formation was analyzed using flow cytometry by monitoring level of EGFP expression. […] Both lipofectamine 2000 and RNAiMAX delivery methods were used as positive controls.

[2] = tested on: endogenous EMX1 gene in primary human T cells; experiment: EMX1 editing in primary human T cells with CAS9 mRNA, protein or plasmid plus gRNA (T7E1); format: cell-based; settings: CAS9-expressing plasmid and gRNA; day 3
Method: CPP/CAS9 mRNA/gRNA complexes were formed by mixing the CAS9 mRNA (0.5 μg) and gRNA (5 μg) with CPP at a 20:1 molar ratio of CPP to nucleic acid (mRNA+gRNA) and incubating for 30 min at 37° C. prior to cell transfection. CPP/plasmid/gRNA complexes were formed by mixing CAS9 expressing plasmid (Addgene MLM3639-Plasmid #42252) (0.5 μg) and gRNA (5 μg) with CPP at a 20:1 molar ratio of CPP to nucleic acid (plasmid+gRNA) and incubating for 30 min at 37° C. prior to cell transfection. CPP/CAS9/gRNA complexes were formed by mixing preloaded CAS9/gRNA complexes (2.5 μg/5 μg CAS9/gRNA) with CPP at a 20:1 molar ratio of CPP to complex and incubating for 30 min at 37° C. prior to cell transfection.
T cells were transfected according to the protocol for suspension cells described in Example 13a. Lipofectamine 2000- and RNAiMAX-mediated delivery methods (Invitrogen Thermo Fisher France) were included as controls. EMX1 gene editing was analyzed at day 3, day 6, and day 10 by T7E1 assay and quantified using a Fragment Analyzer System.

[3] = tested on: endogenous EMX1, AAVS and HPRT genes in U2OS and Human (H9) embryonic stem cells; experiment: Delivery of multiple RGEN:gRNA complexes: EMX1, AAVS, HPRT editing in U2OS and H9 ES cells (T7E1); format: cell-based
Method: RNAiMAX delivery method was used as a positive control.
U2OS cells were treated as described previously. H9 embryonic stem cells were cultured in Dulbecco's modified Eagle's medium with 4 mM L-glutamine adjusted to contain 1.5 g/L sodium bicarbonate and 4.5 g/L glucose and supplemented with 0.1 mM 2-mercaptoethanol, 85%; and 15% ES-Cell Qualified fetal bovine serum. […] CAS9-induced double-strand break formation followed by repair through NHEJ was analyzed 72 hr after transfection by T7E1 assay and quantified using Fragment Analyzer System. The deletion (indel) frequencies in EMX1, AAVS and HPRT genes were quantified using T7E1 assay. Data for on-target mutations induced by RGEN:gRNA are reported as an average of 3 separate experiments.

[4] = tested on: EGFP-U2OS, EGFP-HEK, EGFP-JURKAT cells; experiment: Toxicity of CPP/CAS9/gRNA complexes (MTT assay); format: cell-based; settings: three cell lines; concentrations up to 100 nM; 24 h
Method: The robust EGFP disruption observed in the three cell lines was found not to be the result of cellular toxicity. […] A total of 30,000 cells seeded in 24-well plates the day prior to transfection were incubated with increasing concentrations of CPP/CAS9/gRNA (complexed at a 10:1 or 20:1 molar ratio of CPP to preloaded CAS9/gRNA complex) ranging from 1 to 200 nM for 30 min prior to addition of medium to reach a final 10% concentration of FCS. Cytotoxic response was measured 24 hours later by colorimetric MTT assay (Sigma, Germany). For MTT assay, cell culture medium was removed and replaced with PBS containing 2.5 mg/ml MTT for 4 hours. Results correspond to the average of 3 separate experiments. […] Viability was reduced by less than 10% at 200 nM. In contrast, at […] for Lipofectamine 2000 or RNAiMAX, between 60-70% and 20-25% cell death was observed, depending on cell line. Moreover, both lipid methods appeared to be highly toxic on JURKAT cells, inducing 75% (lipofectamine 2000) or 45% (RNAiMAX) cell death.

PCSK9 = experiment: In vivo CAS9 mRNA/gRNA targeting PCSK9: serum PCSK9 (ELISA); design: species or system mouse
Method: Polyadenylated and capped CAS9 mRNA was obtained from ThermoFisher, and gRNA (5 μg) targeting PCSK9 Exon 1 was obtained from Eurogentec. […] Free CAS9 mRNA/gRNA was injected as a control.
Blood samples were collected by saphenous vein bleeds at multiple time points (day 3, 6, 10, and 21), collecting no more than 100 μl or 10% of total blood volume per week. Serum levels of PCSK9 were determined by ELISA using the Mouse Proprotein Convertase 9/PCSK9 Quantikine ELISA Kit (MPC-900, R&DSystems).

[5] = tested on: U2OS, HEPG2, K562 cells and primary human fibroblasts; experiment: CAS9 protein expression after CPP delivery of CAS9 mRNA (ELISA); format: cell-based; settings: day 3
Method: CPP/CAS9 mRNA complexes were formed by mixing the CAS9 mRNA (0.5 μg) with CPP at a 20:1 molar ratio of CPP:CAS9 mRNA and incubating for 30 min at 37° C. prior to cell transfection. Cells were transfected according to optimized protocols for either adherent or suspension cell lines.
Human primary fibroblasts were freshly obtained and grown in flasks pre-coated with a gelatin-based coating solution and incubated in Culture Complete Growth Medium for 3 days before expansion and treatment. U2OS cells were cultured in Dulbecco's Modified Eagle's Medium (DMEM), supplemented with 2 mM glutamine, 1% antibiotics (streptomycin 10,000 μg/mL, penicillin, 10,000 IU/mL) and 10% (w/v) foetal calf serum (FCS), at 37° C. in a humidified atmosphere containing 5% CO2. 35 mm dishes seeded with 150,000 cells the day prior to transfection were grown to 50-60% confluence and set up to be at about 70% confluences at the time of transfection. Before transfection, cells were washed with DMEM (2×) followed by PBS (1×). Cells were then overlaid with 0.2 ml of complex solution (16 μl CPP/Cargo complex in water+184 μl OPTiMEM without antibiotics), mixed gently, and incubated for 10 min at 37° C. 0.8 mL of fresh OPTiMEM or DMEM was then added and cells were incubated for 20 min at 37° C. 2 mL of complete OPTiMEM (high glucose) or DMEM containing 11.4% FCS was then added in order to reach a final FCS concentration of 10%, without removing the overlay of CPP/Cargo complexes. Cells were returned to the incubator (37° C., 5% CO2) and assayed at 72 hours post transfection.
K562 and HEpG2 cells were set up to be at about 70% confluence at the time of transfection. The cells were maintained in high glucose DMEM media with 10% serum. Before transfection, cells were harvested by centrifugation, then washed with DMEM (2×) followed by PBS (1×). Cells were then resuspended in 0.2 ml of complex solution (16 μl CPP/Cargo complex in water+184 μl OPTiMEM without antibiotics), mixed gently, and incubated for 10 min at 37° C. 0.8 mL of fresh OPTiMEM was then added and cells were incubated for 20 min at 37° C. 2 mL of complete OPTiMEM (high glucose) containing 11.4% FCS was then added in order to reach a final FCS concentration of 10%, without removing the overlay of CPP/Cargo complexes. Cells were returned to the incubator (37° C., 5% CO2) and assayed at 72 hours post transfection.
RNAiMAX lipid-based delivery (Invitrogen Thermo Fisher France) was used as a control and transfections were performed following the manufacturer's instructions. CAS9 expression level was analyzed at multiple time points over a period of 10 days as determined by ELISA on protein extracts using antibodies against CRISPR/Cas9 obtained from Diagenode (Diagenode cat. No. C15200223) and ABCAM (clone 7A9-ab191468).

Swiss mice [6] = experiment: In vivo delivery of CAS9 mRNA by three CPPs: CAS9 expression in tissues (ELISA); design: species or system mouse
Method: Free CAS9 mRNA in physiological buffer was injected as a control.
At day 3, day 6, and day 10 following injection, animals were sacrificed and tissues including lung, liver, brain, kidney, heart, spleen, blood, pancreas, muscle, bone marrow, and intestine were collected. Tissues were homogenized and CAS9 protein levels in protein extracts were analyzed by ELISA using an antibody against CRISPR/Cas9 (SBI clone 7A9).

[7] = tested on: E-Catenin gene in mouse muscle myoblast cells (C2C12); experiment: ü-Catenin gene disruption in C2C12 myoblasts (PCR gel); format: cell-based; settings: undifferentiated and differentiated C2C12
Method: Cells were transfected with CAS9/gRNA (2.5 μM/5 μM) complexes associated with CPP (+) or not (−) at a molar ratio of 20:1 (peptide to complex) and compared to delivery by RNAiMAX for E-Catenin expression. ü-actin expression was included as a loading control.
[…] Delivery by RNAiMAX was included as a positive control.
CAS9-induced NHEJ was analyzed 72 hours after transfection by PCR (FIG. 26) and T7E1 assay (FIG. 27). The deletion (indel) frequencies in the HPRT gene were quantified using a T7E1 assay by quantifying the amount of uncut vs cut DNA using a Fragment Analyzer System. Data for on-target mutations induced by RGEN/gRNA are reported as an average of 3 separate experiments
The cell line was maintained in 5% CO2 at 37° C. and cell viability was assessed by the Trypan Blue exclusion test. To induce myogenic differentiation, at about 80% cell confluence the medium containing 10% fetal calf serum was substituted with medium containing 1% fetal calf serum. The cells were transfected at the undifferentiated stage or at day 7 after differentiation.

[8] = tested on: endogenous hPD1 gene in JURKAT and K562 cells; experiment: hPD1 gene editing in T cell lines (T7E1 assay); format: cell-based, human
Method: CAS9 protein was preloaded with purified sgRNA at a molar ratio of 1:1 and incubated for 10 min prior to forming complexes with peptides.
5×10^6 cells were washed twice with DPBS by centrifuging at 800 rpm for 5 minutes and resuspended in 100 ^l transfection buffer, and then transferred into the electroporation cuvette. An optimized program selected for both high transfection and high efficiency on T cells was used. After electroporation, cells were resuspended in 500 ^l pre-warmed AIM-V medium containing 10% FBS and incubated at 37° C. in 5% CO2. The transfection efficiency was evaluated after 48 hr by flow cytometry or T7E1 assay.
RNAiMAX delivery method was used as positive control. Cells were either resuspended in or overlaid with 100 μl of preformed complexes, incubated for 3-5 min, and then 300 μl of DMEM was added. […] The indel frequency in the hPD1 gene was quantified using the T7E1 assay.

[9] = tested on: endogenous EMX1 gene in U2OS, HEPG2, K562 cells and primary human fibroblasts; experiment: EMX1 editing from CPP delivery of CAS9 protein/gRNA (T7E1); format: cell-based; settings: each of the cell types tested; 2.5 μg/5 μg CAS9/gRNA
Method: CPP/CAS9/gRNA complexes were prepared by mixing preloaded CAS9/gRNA complexes (2.5 μg/5 μg CAS9/gRNA) with CPP peptides at a 20:1 molar ratio of CPP to cargo and incubating for 30 min at 37° C. prior to cell transfection. Cells were transfected according to the protocols described in Example 13a, and RNAiMAX-mediated delivery (Invitrogen Thermo Fisher France) was used as a control. EMX1 gene editing was analyzed at day 3 and day 6 by T7E1 assay and quantified using a Fragment Analyzer System.

Swiss mice [10] = settings: other tissues examined
Method: At 72 hours following injection, animals were sacrificed and tissues including lung, liver, brain, kidney, heart, spleen, blood, and pancreas were collected. Tissues were homogenized and CAS9 expression was analyzed by western blot on protein extract using antibody against CRISPR/Cas9 (Diagenode cat. No. C15200223) or by ELISA using Cas9 monoclonal antibody (SBI clone 7A9).

primary human T cells = experiment: CAS9 protein expression in primary human T cells after CAS9 mRNA or plasmid delivery (ELISA); format: cell-based; settings: day 3
Method: T cells were isolated from PBMCs using anti-CD3/anti-CD28 antibodies bound to paramagnetic beads (Dynabeads ClinExVivo CD3/CD28, Invitrogen) at a ratio of 3:1 (beads:cells). The cells and beads were co-incubated for 2 hours at room temperature and CD3^+ cell enrichment was performed using Dynal ClinExVIVO MPC magnet (Thermo Fisher). The anti-CD3/anti-CD28 paramagnetic beads were removed, washed and concentrated. Cells in the CD3^+ fraction were resuspended in activation media at a concentration of 1×10^6 cells/ml with AIM-V medium (Thermo Fishers) supplemented with 10% fetal calf serum, 300 IU/ml IL2 and 50 ng/ml OKT3 (MuromonAB-CD3) for two days.
CPP/CAS9 complexes were formed by mixing the CAS9 mRNA (0.5 μg) with CPP at a 20:1 molar ratio of CPP:CAS9 mRNA and incubating for 30 min at 37° C. prior to cell transfection. CPP/CAS9-expressing plasmid complexes were formed by mixing the CAS9-expressing plasmid (Addgene MLM3639-Plasmid #42252) (0.5 μg) with CPP at a 20:1 molar ratio of CPP:plasmid and incubating for 30 min at 37° C. prior to cell transfection.
Cells were transfected according to the protocol for suspension cells described in Example 13a. RNAiMAX and lipofectamine 2000 lipid-based delivery methods (Invitrogen Thermo Fisher France) were used as controls, and transfections were performed following the manufacturer's instructions. CAS9 protein expression level was analyzed at multiple time points over a period of 10 days as determine by ELISA on protein extracts using antibodies against CRISPR/Cas9 obtained from Diagenode (Diagenode cat. No. C15200223) and ABCAM (clone 7A9-ab191468).

[11] = tested on: Luciferase reporter gene in the liver; settings: free ADGN-100a peptide
Method: At 72 hours post injection, animals were sacrificed and the following tissues were collected: liver, lung, kidney, spleen, and blood. Luciferase was quantified by fluorescence in the liver. Tissues were homogenized and CAS9 expression was analyzed by ELISA using Cas9 monoclonal antibody (SBI clone 7A9).

[12] = tested on: exogenous eGFP gene reporter in eGFP-U2OS cell line; settings: 72 h
Method: Both lipofectamine 2000 and RNAiMAX delivery methods were included as controls. eGFP-U2OS cells were cultured in Dulbecco's Modified Eagle's Medium (DMEM), supplemented with 2 mM glutamine, 1% antibiotics (streptomycin 10,000 μg/mL, penicillin, 10,000 IU/mL) and 10% (w/v) foetal calf serum (FCS), at 37° C. in a humidified atmosphere containing 5% CO2. A total of 150,000 cells seeded in a 35 mm dish the day prior to transfection were grown to 50-60% confluence and overlaid with 200 μl of preformed complexes, incubated for 5 min, then 400 μl of DMEM was added. After 20 min incubation at 37° C., 1 mL of fresh DMEM containing 16% FCS was added in order to reach a final FCS concentration of 10%, without removing the overlay of complexes. Cells were returned to the incubator for 72 hours.

## CC(C)C[C@H](NC(=O)[C@H](CCCNC(=N)N)NC(=O)[C@H](Cc1c[nH]c2ccccc12)NC(=O)[C@H](CCCNC(=N)N)NC(=O)[C@H](Cc1c[nH]c2ccccc12)NC(=O)CNC(=O)[C@H](C)NC(=O)[C@H](CO)NC(=O)[C@H](CCCNC(=N)N)NC(=O)[C@H](Cc1c[nH]c2ccccc12)NC(=O)[C@H](CCCCN)NC(=O)CCN)C(=O)N[C@@H](Cc1c[nH]c2ccccc12)C(=O)N[C@@H](CCCNC(=N)N)C(=O)N[C@H](C(=O)N[C@@H](CCCNC(=N)N)C(=O)N[C@@H](CO)C(=O)N[C@@H](Cc1c[nH]c2ccccc12)C(=O)N[C@@H](CO)C(=O)N[C@@H](CCCNC(=N)N)C(=O)O)C(C)C [ADGN-100a]
[1]; EGFP-JURKAT
  reduction of EGFP-positive cells: 81%
[1]; HEK, 1 nM CAS9:gRNA
  reduction of number of EGFP-expressing cells: 62%
[1]; HEK
  decrease in EGFP expression: 86%
[1]; JURKAT, 1 nM CAS9:gRNA
  reduction of EGFP-expressing cells / loss of EGFP expression: 51%
[1]; U2OS, 1 nM CAS9:gRNA
  reduction of number of EGFP-expressing cells: 57%
[1]; U2OS
  decrease in EGFP expression: 87%
[2]
  mean indel frequencies: about 30%
[3]; H9, AAVS
  Mean indel Frequency ± S.E.M: 60 ± 5%
[3]; H9, EMX1
  Mean indel Frequency ± S.E.M: 61 ± 6%
[3]; H9, HPRT
  Mean indel Frequency ± S.E.M: 61 ± 5%
[3]; U2OS, AAVS
  Mean indel Frequency ± S.E.M: 72 ± 4%
[3]; U2OS, EMX1, 20 nM each complex
  Mean indel Frequency ± S.E.M: 78 ± 7%
[3]; U2OS, HPRT
  Mean indel Frequency ± S.E.M: 78 ± 6%
[4]
  toxicity: no toxicity
PCSK9; day 1, CAS9 mRNA 5 μg/gRNA 5 μg single i.v.
  decrease of serum levels of PSCK9: 51%
PCSK9; day 3
  decrease of serum levels of PSCK9: 62%
PCSK9; day 6
  decrease of serum levels of PSCK9: 69%
PCSK9; day 10
  decrease of serum levels of PSCK9: 65%
PCSK9; day 14
  decrease of serum levels of PSCK9: 65%
PCSK9; day 20
  decrease of serum levels of PSCK9: 60%
[5]; U2OS, K562, HepG2, CAS9 mRNA 0.5 μg
  ELISA signal for CAS9 protein expression: about 25 times the background
[5]; primary human fibroblasts
  ELISA signal for CAS9 protein expression: about 20 times the background
Swiss mice [6]; day 10, liver
  CAS9 expression: CAS9 expression was observed
Swiss mice [6]; liver, day 3 and day 6, CAS9 mRNA 5 μg i.v., 20:1
  ELISA signal for CAS9 protein expression: greater than 20 times that of background
Swiss mice [6]; other tissues examined
  CAS9 protein expression: Little to no increase
[7]
  editing of ü-Catenin and HPRT genes: robust editing
[8]; JURKAT, CAS9/sgRNA 2.5 μg/5 μg
  Mean indel Frequency ± s.e.m: 70 ± 5%
[8]; JURKAT, CAS9/sgRNA 5 μg/10 μg
  Mean indel Frequency ± s.e.m: 72%
[8]; JURKAT, CAS9/sgRNA 5 μg/10 μg, listed as ADGN400a
  Mean indel Frequency ± s.e.m: 72 ± 2%
[8]; K562, CAS9/sgRNA 2.5 μg/5 μg
  Mean indel Frequency ± s.e.m: 68 ± 2%
[8]; K562, CAS9/sgRNA 5 μg/10 μg
  Mean indel Frequency ± s.e.m: 71%
[8]; K562, CAS9/sgRNA 5 μg/10 μg, listed as ADGN400a
  Mean indel Frequency ± s.e.m: 71 ± 5%
[9]
  mean indel frequencies: 60-65%
Swiss mice [10]
  CAS9 protein expression: No significant increase
Primary human T cells; CAS9-expressing plasmid 0.5 μg
  ELISA signal for CAS9 protein expression: about 4 times the background
Primary human T cells; CAS9 mRNA 0.5 μg
  ELISA signal for CAS9 protein expression: about 15 times the background
[11]
  change in luciferase expression: no change in luciferase expression
[12]; CAS9 mRNA/gRNA (0.5 μg/5 μg)
  decrease in EGFP expression: 85%
[12]; CAS9 protein/gRNA (2.5 μM/5 μM)
  decrease in EGFP expression: 87%
